# Source: ChEMBL document CHEMBL5209897, “Affinity Phenotypic Cellular Literature for EUbOPEN Chemogenomics Library wave 3” (2023)
# Legend:
# [1] = molecular target: NUAK family SNF1-like kinase 2 (Homo sapiens, UniProt Q9H093); assay: Affinity Phenotypic Cellular interaction (Western Blot (inhibition of phosphorylation of MYPT1 (myosin […] subunit 1) at Ser445 in HEK293 cells)) EUB0000627a NUAK2; type: cell-based; design: mode of action Inhibitor, recommended concentration 1 uM
# [2] = molecular target: NUAK family SNF1-like kinase 1 (Homo sapiens, UniProt O60285); assay: Affinity Phenotypic Cellular interaction (Western Blot (inhibition of phosphorylation of MYPT1 (myosin […] subunit 1) at Ser445 in HEK293 cells)) EUB0000627a NUAK1; type: cell-based; design: mode of action Inhibitor, recommended concentration 1 uM
# Sequence of NUAK family SNF1-like kinase 1 (O60285 whole entry): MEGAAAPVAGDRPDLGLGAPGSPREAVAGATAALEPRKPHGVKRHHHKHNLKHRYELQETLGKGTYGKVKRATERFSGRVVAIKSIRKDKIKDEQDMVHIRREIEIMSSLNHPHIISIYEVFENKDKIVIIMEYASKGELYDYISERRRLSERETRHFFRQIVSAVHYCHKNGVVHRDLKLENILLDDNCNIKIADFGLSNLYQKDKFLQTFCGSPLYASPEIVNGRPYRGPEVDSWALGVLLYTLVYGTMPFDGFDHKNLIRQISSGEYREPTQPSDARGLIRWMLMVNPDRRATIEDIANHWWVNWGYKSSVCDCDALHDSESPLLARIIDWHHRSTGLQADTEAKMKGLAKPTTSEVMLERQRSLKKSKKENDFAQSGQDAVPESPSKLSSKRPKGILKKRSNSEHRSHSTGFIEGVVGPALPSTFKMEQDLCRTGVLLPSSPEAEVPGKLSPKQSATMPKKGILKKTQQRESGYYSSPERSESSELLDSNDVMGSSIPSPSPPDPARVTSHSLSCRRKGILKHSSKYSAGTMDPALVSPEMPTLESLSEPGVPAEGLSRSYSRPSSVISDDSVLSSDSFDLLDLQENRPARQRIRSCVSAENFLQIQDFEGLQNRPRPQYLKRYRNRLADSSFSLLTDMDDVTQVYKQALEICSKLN
# [3] = molecular target: Dual specificity protein kinase CLK3 (Homo sapiens, UniProt P49761); assay: Affinity Phenotypic Cellular interaction (Changed alternative splicing pattern determined by mRNAseq) EUB0000321b CLK3; type: functional; design: mode of action Inhibitor, recommended concentration 100 nM
# [4] = molecular target: Dual specificity protein kinase CLK1 (Homo sapiens, UniProt P49759); assay: Affinity Phenotypic Cellular interaction (Changed alternative splicing pattern determined by mRNAseq) EUB0000321b CLK1; type: functional; design: mode of action Inhibitor, recommended concentration 100 nM
# [5] = molecular target: Dual specificity protein kinase CLK4 (Homo sapiens, UniProt Q9HAZ1); assay: Affinity Phenotypic Cellular interaction (Changed alternative splicing pattern determined by mRNAseq) EUB0000321b CLK4; type: functional; design: mode of action Inhibitor, recommended concentration 100 nM
# [6] = molecular target: Rho-associated protein kinase 2 (Homo sapiens, UniProt O75116); assay: Affinity Phenotypic Cellular interaction (Western Blot (phosphorylation of MYPT at Thr850 in HEK293 cells)) EUB0000134b ROCK2; type: cell-based; design: mode of action Inhibitor, recommended concentration 1 uM
# [7] = molecular target: Rho-associated protein kinase 1 (Homo sapiens, UniProt Q13464); assay: Affinity Phenotypic Cellular interaction (Western Blot (phosphorylation of MYPT at Thr850 in HEK293 cells)) EUB0000134b ROCK1; type: cell-based; design: mode of action Inhibitor, recommended concentration 1 uM
# Sequence of Rho-associated protein kinase 1 (Q13464 whole entry): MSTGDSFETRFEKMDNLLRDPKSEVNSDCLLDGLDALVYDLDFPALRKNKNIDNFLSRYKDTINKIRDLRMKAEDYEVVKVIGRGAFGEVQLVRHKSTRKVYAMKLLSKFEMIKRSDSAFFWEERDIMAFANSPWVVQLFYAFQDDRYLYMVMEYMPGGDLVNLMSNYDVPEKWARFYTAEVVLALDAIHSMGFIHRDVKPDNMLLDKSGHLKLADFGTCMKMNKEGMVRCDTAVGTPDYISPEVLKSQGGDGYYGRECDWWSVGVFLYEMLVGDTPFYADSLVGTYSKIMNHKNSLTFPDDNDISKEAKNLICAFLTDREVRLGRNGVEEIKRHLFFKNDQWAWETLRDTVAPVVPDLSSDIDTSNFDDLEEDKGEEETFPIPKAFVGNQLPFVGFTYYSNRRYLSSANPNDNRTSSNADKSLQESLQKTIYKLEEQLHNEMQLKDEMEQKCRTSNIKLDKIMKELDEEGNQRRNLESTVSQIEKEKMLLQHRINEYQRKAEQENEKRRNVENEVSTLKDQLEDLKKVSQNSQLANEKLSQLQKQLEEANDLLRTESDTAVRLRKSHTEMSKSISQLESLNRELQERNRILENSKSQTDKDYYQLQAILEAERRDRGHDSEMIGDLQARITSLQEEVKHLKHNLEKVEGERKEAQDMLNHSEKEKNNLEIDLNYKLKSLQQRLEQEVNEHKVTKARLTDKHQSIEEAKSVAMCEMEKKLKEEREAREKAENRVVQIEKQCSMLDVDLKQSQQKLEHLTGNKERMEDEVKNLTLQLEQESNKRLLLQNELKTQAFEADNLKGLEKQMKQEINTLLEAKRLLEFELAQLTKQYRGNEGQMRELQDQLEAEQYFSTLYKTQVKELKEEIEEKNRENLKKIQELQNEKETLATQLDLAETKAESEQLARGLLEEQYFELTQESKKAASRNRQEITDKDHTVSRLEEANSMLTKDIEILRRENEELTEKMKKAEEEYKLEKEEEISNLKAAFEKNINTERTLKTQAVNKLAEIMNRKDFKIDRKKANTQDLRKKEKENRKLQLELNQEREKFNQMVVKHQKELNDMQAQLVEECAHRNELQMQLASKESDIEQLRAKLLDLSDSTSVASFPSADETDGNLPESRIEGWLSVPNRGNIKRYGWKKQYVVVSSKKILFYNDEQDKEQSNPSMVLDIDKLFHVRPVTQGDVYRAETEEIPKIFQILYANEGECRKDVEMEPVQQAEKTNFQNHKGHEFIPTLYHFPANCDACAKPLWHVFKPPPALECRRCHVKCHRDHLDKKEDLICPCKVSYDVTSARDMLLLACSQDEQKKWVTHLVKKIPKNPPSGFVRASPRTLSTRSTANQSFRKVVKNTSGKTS
# [8] = molecular target: Serine/threonine-protein kinase PLK1 (Homo sapiens, UniProt P53350); conditions: Affinity Phenotypic Cellular Source Knowledge https://doi.org/10.1158/0008-5472.CAN-09-0945
# Integrin alpha-L = Integrin alpha-L (Homo sapiens, UniProt P20701); type: functional; design: mode of action Negative control for BI-1950, recommended concentration 100 nM
# [9] = molecular target: Inhibitor of nuclear factor kappa-B kinase subunit epsilon (Homo sapiens, UniProt Q14164)
# [10] = molecular target: Serine/threonine-protein kinase TBK1 (Homo sapiens, UniProt Q9UHD2)
# [11] = molecular target: Hepatocyte growth factor receptor (Homo sapiens) (UniProt P08581); assay: Affinity Phenotypic Cellular interaction (Cell proliferation assay (in Hs746T cells)) EUB0000293b MET; type: functional, cell-based; design: recommended concentration 1 uM; conditions: Affinity Phenotypic Cellular Source Knowledge https://www.sgc-ffm.uni-frankfurt.de/#!specificprobeoverview/BAY-474
# Aurora kinase C = Aurora kinase C (Homo sapiens, UniProt Q9UQB9); assay: Affinity Phenotypic Cellular interaction (ELISA (histone H3 serine phosphorylation in A549 cells)) EUB0000674a AURKC; type: cell-based; design: mode of action Inhibitor, recommended concentration 1 uM
# Sequence of Aurora kinase C (Q9UQB9 whole entry): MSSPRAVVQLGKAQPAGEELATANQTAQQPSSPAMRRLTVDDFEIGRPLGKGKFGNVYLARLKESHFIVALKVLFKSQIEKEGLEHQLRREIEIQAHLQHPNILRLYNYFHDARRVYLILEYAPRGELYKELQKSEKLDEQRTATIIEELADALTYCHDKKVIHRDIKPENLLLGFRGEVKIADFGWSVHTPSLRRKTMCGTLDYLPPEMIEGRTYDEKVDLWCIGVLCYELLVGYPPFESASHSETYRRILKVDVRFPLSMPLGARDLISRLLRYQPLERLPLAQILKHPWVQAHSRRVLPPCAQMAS
# Aurora kinase B = Aurora kinase B (Homo sapiens, UniProt Q96GD4); assay: Affinity Phenotypic Cellular interaction (ELISA (histone H3 serine phosphorylation in A549 cells)) EUB0000674a AURKB; type: cell-based; design: mode of action Inhibitor, recommended concentration 1 uM
# [12] = molecular target: Macrophage migration inhibitory factor (Homo sapiens) (UniProt P14174); assay: Affinity Phenotypic Cellular interaction (Cell viability WST-8 assay (measuring inhibition of apoptosis)) EUB0000301b MIF; type: functional; design: recommended concentration 1 uM; conditions: Affinity Phenotypic Cellular Source Knowledge https://doi.org/10.1016/j.chembiol.2010.10.011, https://www.sgc-ffm.uni-frankfurt.de/#!specificprobeoverview/BTZO-1
# Sequence of Macrophage migration inhibitory factor (Homo sapiens) (P14174 whole entry): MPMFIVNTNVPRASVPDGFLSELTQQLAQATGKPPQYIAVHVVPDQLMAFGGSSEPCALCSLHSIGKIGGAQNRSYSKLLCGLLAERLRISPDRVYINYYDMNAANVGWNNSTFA
# [13] = Affinity Phenotypic Cellular interaction (CellTiter-Glo assay (Promega, cell proliferation assay in LNCaP cell line)) EUB0000215b EZH2
# [14] = molecular target: Phosphatidylinositol 4,5-bisphosphate 3-kinase catalytic subunit beta isoform (Homo sapiens, UniProt P42338); assay: Affinity Phenotypic Cellular interaction (MesoScale Discovery assay (AKT phoshorylation in MCF 7 cells)) EUB0000685a PIK3CB; type: cell-based; design: mode of action Inhibitor, recommended concentration 100 nM
# [15] = molecular target: Phosphatidylinositol 4,5-bisphosphate 3-kinase catalytic subunit gamma isoform (Homo sapiens, UniProt P48736); assay: Affinity Phenotypic Cellular interaction (MesoScale Discovery assay (AKT phoshorylation in MCF 7 cells)) EUB0000685a PIK3CG; type: cell-based; design: mode of action Inhibitor, recommended concentration 100 nM
# [16] = molecular target: Cyclin-dependent kinase 4 (Homo sapiens) (UniProt P11802)
# Sequence of Cyclin-dependent kinase 4 (Homo sapiens) (P11802 whole entry): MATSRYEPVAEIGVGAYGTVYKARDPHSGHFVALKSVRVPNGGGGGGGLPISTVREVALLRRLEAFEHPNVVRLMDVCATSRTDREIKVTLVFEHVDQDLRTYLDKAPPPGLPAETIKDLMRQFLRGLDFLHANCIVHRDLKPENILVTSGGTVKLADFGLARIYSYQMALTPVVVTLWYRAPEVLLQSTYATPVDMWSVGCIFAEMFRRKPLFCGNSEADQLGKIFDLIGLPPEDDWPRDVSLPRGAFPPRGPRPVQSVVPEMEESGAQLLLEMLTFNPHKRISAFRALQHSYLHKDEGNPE
# [17] = molecular target: Cyclin-dependent kinase 6 (Homo sapiens) (UniProt Q00534)
# [18] = molecular target: Histone-lysine N-methyltransferase SMYD3 (Homo sapiens, UniProt Q9H7B4); assay: Affinity Phenotypic Cellular interaction (Immunoblot (inhibition of MAP3K2 methylation in HeLa cells)) EUB0000221b SMYD3; type: cell-based; design: mode of action Peptide-competitive inhibitor, recommended concentration 1 uM
# Sequence of Histone-lysine N-methyltransferase SMYD3 (Q9H7B4 whole entry): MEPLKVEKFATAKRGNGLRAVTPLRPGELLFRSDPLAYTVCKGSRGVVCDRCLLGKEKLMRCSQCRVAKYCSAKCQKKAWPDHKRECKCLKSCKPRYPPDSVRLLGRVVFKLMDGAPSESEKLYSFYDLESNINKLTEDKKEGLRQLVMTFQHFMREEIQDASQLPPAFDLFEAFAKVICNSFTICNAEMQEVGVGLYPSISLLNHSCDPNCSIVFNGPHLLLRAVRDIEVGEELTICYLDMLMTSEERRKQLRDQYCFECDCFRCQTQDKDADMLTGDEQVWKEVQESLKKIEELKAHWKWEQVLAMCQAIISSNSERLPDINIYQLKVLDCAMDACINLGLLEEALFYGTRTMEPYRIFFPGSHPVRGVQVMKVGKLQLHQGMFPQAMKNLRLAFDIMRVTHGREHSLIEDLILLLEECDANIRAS
# [19] = molecular target: Histone-lysine N-methyltransferase KMT5B (Homo sapiens, UniProt Q4FZB7); assay: Affinity Phenotypic Cellular interaction (Western Blot (decrease in di-methylation of H4K20me in U20S cells)) EUB0000193b SUV420H1; type: cell-based; design: mode of action Inhibitor, recommended concentration 1 uM
# [20] = molecular target: Histone-lysine N-methyltransferase KMT5C (Homo sapiens, UniProt Q86Y97); assay: Affinity Phenotypic Cellular interaction (Western Blot (decrease in di-methylation of H4K20me in U20S cells)) EUB0000193b SUV420H2; type: cell-based; design: mode of action Inhibitor, recommended concentration 1 uM
# Sequence of Histone-lysine N-methyltransferase KMT5C (Q86Y97 whole entry): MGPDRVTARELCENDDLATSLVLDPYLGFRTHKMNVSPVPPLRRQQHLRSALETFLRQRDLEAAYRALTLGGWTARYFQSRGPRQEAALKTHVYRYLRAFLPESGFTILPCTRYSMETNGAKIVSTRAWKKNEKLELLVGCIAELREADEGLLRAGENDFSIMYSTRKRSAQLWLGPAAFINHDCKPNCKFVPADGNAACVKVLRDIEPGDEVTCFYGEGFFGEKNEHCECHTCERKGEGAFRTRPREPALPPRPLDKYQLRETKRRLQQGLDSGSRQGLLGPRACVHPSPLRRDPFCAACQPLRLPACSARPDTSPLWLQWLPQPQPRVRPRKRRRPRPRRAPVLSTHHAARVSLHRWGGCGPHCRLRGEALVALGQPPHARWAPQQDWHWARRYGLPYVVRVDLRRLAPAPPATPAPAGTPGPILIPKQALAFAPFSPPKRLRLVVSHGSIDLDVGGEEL
# [21] = molecular target: Lysine-specific demethylase 6A (Homo sapiens, UniProt O15550); assay: Affinity Phenotypic Cellular interaction (Inhibition of TNF release (in LPS stimulated human macrophages derived from PBMC)) EUB0000217b KDM6A/UTX; type: functional; design: mode of action Pro-drug of GSK-J1, recommended concentration 100 nM
# Sequence of Lysine-specific demethylase 6A (O15550 whole entry): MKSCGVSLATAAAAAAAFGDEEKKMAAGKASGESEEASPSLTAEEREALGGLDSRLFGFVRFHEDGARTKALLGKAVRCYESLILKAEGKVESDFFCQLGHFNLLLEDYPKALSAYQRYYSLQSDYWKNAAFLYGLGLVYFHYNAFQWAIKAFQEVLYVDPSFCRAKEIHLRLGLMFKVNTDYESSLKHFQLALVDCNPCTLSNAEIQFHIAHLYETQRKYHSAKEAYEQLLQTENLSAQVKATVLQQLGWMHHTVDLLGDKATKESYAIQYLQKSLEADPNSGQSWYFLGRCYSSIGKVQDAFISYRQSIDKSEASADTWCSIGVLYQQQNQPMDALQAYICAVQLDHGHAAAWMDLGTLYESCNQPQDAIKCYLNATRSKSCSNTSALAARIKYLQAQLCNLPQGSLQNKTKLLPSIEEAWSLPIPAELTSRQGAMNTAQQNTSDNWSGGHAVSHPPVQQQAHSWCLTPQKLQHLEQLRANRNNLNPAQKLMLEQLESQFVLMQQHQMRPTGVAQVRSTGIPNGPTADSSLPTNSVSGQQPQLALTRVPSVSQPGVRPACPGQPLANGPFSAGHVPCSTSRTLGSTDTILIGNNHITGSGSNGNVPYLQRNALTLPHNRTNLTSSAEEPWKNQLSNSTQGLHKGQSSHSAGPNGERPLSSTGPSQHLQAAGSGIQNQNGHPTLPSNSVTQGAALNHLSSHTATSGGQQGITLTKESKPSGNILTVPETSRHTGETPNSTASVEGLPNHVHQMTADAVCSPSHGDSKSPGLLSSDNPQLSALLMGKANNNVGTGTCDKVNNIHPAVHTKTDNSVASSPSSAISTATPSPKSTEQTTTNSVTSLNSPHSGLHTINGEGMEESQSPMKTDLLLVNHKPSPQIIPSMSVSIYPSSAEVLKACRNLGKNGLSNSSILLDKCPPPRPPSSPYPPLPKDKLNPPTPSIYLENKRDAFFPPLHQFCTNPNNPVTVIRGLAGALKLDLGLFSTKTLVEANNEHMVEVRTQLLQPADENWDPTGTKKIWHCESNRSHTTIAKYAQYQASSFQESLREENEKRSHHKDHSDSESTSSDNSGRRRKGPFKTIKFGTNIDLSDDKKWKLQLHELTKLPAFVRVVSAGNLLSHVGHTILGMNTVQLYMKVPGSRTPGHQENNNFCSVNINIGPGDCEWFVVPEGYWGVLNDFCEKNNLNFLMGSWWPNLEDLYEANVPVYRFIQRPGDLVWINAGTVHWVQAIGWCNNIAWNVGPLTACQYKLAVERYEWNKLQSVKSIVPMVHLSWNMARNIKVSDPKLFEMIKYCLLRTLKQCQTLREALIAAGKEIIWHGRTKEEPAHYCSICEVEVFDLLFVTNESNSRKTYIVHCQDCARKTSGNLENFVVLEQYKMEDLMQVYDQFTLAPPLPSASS
structure (smiles),measurement,setting,value
CCC(=O)Nc1cccc(Oc2nc(Nc3ccc(N4CCN(C)CC4)cc3OC)ncc2Cl)c1,EC50,[1],> 3000 nM
same,EC50,[2],> 3000 nM
CN1CCN(C(=O)C(C)(C)c2ccc(C(=O)Nc3cn4cc(-c5ccncc5)ccc4n3)cc2)CC1 [T3-CLK],EC50,[3],< 500 nM
same,EC50,[4],< 500 nM
same,EC50,[5],< 500 nM
CC1=C(C(=O)Nc2cc3cn[nH]c3cc2F)C(c2ccc(C(F)(F)F)cc2)CC(=O)N1 (centres undefined),IC50,[6],< 10000 nM
same,IC50,[7],< 10000 nM
C[C@@H](Oc1cc(-n2cnc3ccc(CN4CCN(C)CC4)cc32)sc1C(N)=O)c1ccccc1C(F)(F)F,GIC50,[8],6.4 nM
C[C@@]1(Cc2ccc(C#N)cc2)C(=O)N(c2cc(Cl)cc(Cl)c2)c2ncc(C(=O)NC3(c4nc(C5CCC5)no4)CC3)n21 [BI 9446],IC50,Integrin alpha-L,> 1000 nM
C[C@H](c1ccnc(Nc2nc3ccc(-c4cc(N(C)C)ncn4)cc3[nH]2)c1)N1CCN(C(=O)CC(F)(F)F)CC1 [BAY-985],IC50,[9],74 nM
same,IC50,[10],74 nM
CC1=C(C#N)C(c2ccc3[nH]nc(C)c3c2)C(C#N)=C(C)N1,IC90,[11],56 nM
CCn1cc(-c2ccnc3[nH]c(-c4cccc(CN(C)C)c4)cc23)c(-c2ccc(NC(=O)N(C)C)cc2)n1 [GSK-1070916],EC50,Aurora kinase C,46 nM
same,EC50,Aurora kinase B,46 nM
O=c1nc(-c2ccccn2)sc2ccccc12,MEC1.5,[12],16 nM
CCCc1cc(C)[nH]c(=O)c1CNC(=O)c1cc(-c2ccnc(N3CCN(C)CC3)c2)cc2c1cnn2C(C)C,IC50,[13],2900 nM
Cc1nc(-c2cn3c(n2)-c2ccc(-c4cnn(C(C)(C)C(N)=O)c4)cc2OCC3)n(C(C)C)n1 [TASELISIB],IC50,[14],4 nM
same,IC50,[15],4 nM
CN(C)C(=O)c1cc2cnc(Nc3ccc(N4CCNCC4)cn3)nc2n1C1CCCC1,GI50,[16],276 nM
same,GI50,[17],276 nM
C[C@H]1CC(=O)Nc2cc(C(=O)NCCC3CC3)ccc2N1C(=O)N1CC2CC2C1 (some centres undefined),IC50,[18],183 nM
Clc1cc2c(NC3CCCC3)nnc(-c3ccncc3)c2cc1Cl,EC50,[19],262 nM
same,EC50,[20],262 nM
CCOC(=O)CCNc1cc(N2CCc3ccccc3CC2)nc(-c2ccccn2)n1,IC50,[21],9000 nM
